Assay results from publication PMC4490117 (Pharmaceutical research, 2015).

Tests used:
[1] = T1 relaxation time by MRI phantom, 4.7 Tesla; type: physicochemical; conditions: same gadolinium concentration, Avg ± SD, n=3
[2] = system: subcutaneous flank SKOV-3 tumors; experiment: T1-weighted MRI of tumor accumulation in tumor-bearing mice; type: in vivo, nu/nu mice; conditions: IV, gadolinium 0.072 mmoles/kg, SKOV-3 tumor-bearing mice, n=3

T1 Relaxivity [1]: 22 ms | time to clear from the tumor (T1-weighted images) ([2]; Figure 4A): ≤ 6 h | time to clear from tumor tissues (relative T1 signal, % tumor signal vs time) ([2]; Figure 4B): ≤ 5 h
SMILES: CNC[C@H](O)[C@@H](O)[C@H](O)[C@H](O)CO.CNC[C@H](O)[C@@H](O)[C@H](O)[C@H](O)CO.O=C([O-])CN(CCN(CC(=O)[O-])CC(=O)O)CCN(CC(=O)[O-])CC(=O)O.[Gd+3] [Magnevist]
